Results as given in article PMC11729428, “New Potent Inhibitor of Transforming Growth Factor-Beta (TGFβ) Signaling that is Efficacious against Microsatellite Stable Colorectal Cancer Metastasis in Combination with Immune Checkpoint Therapy in Mice” (ACS Pharmacology & Translational Science, 2024).

Legend:
[1] = tested on: mouse tumor organoids (MTOs), CRC liver metastases; design: method as in PMID 29443964; details: murine CRC liver metastasis model ref 5; cited from earlier work
[2] = Literature oral pharmacokinetics in mice; format: in vivo; details: female, mouse, plasma, mice (♀ CD-1), 75 mg/kg, estimated using AUClast of ref 20
Excerpt: Table 2 Pharmacokinetics of HYL001 in Preclinical Species after Oral Administration ^a | column: Cl/F (mL/min/kg)

hERG potassium channel = hERG potassium channel (Homo sapiens, UniProt Q12809); test: in vitro; details: CHO-K1 cells (hERG current)
Procedure: clamp (Eurofins, Celle L’Evescault, France) on CHO -K1 cells. The tail current amplitude, induced by a one
second test pulse to -40 mV after a two second pulse to +20 mV, was measured before and aft er drug incubation

[3] = Plasma protein binding by rapid equilibrium dialysis, human plasma; details: for fraction unbound at 4 h, 5 µM: plasma
Procedure: 5. Methods for In vitro characterizations of HYL001 […]
Rapid equilibrium dialysis was performed in triplicates with a rapid equilibrium dialysis (RED) by Sai Life Sciences Lt. (Telangana, India). The RED device contains a dialysis membrane with a molecular weight cut -off […]
of 8,000 Da, separating two chambers for plasma and buffer, respectively. […]
were added to the plasma chamber, versus phosphate buffer saline (pH 7.4) to the buffer chamber. Dialysis was performed for 4 h with 100 RPM shaking at 37 °C. […]
compounds in plasma were either frozen immediately (T0 sample), or incubated at 37 °C for 4 h without dialysis (non-dialysed), respectively.
Following dialysis, an aliquot was removed from either chamber and diluted with equal volume of opposite matrix to nullify the matrix effect. Similarly, buffer was added to recovery and stability samples. Next, acetonitrile (containing internal standard, glipizide) was added to the mixtures for protein precipitation and vortexed for 5 minutes. The samples were centrifuged at 4000 RPM at 4 °C for 10 min and the supernatant was submitted for liquid chromatography mass spectrometry (LC-MS/MS) analysis. Samples were monitored for parent compound using multiple reaction monitoring (MRM) mode.
The peak area ratios (PAR, analyte versus internal standard) in plasma vs bufffer were used to determine the fraction of compound bound to plasma proteins. The following equation was used to determine the extent of plasma protein binding: percent free drug = 100% x (PARbuffer / PARplasma); percent bound drug = 100 - % free drug. Recovery was calculated as 100% x (PARplasma + PARbuffer)dialysed / (PARplasma)non-dialysed; stability as 100% x (PAR)non-dialysed / (PARplasma)frozen at T0. […]

TGFBR2 = biological target: T1, TGFBR2 (Homo sapiens, UniProt P37173); test: KINOMEscan competitive binding assay (Kd); details: analyses herein; read-out: Binding constant (Kd) TGFBR2
T1 construct: purchased Eurofins/DiscoveryX (KINOMEscan service)
Excerpt: (§1) 5. Methods for In vitro characterizations of HYL001
(§2) Kinase affinity and selectivity
(§3) Kd values were obtained by an 11 -point
(§4) (BMPR1A), ALK4 (ACVR1B), ALK6 (BMPR1B), ACVR2B and TGFβ R2. […]

ALK6 (BMPR1B) = biological target: T2, ALK6 (BMPR1B) (Homo sapiens, UniProt O00238); test: KINOMEscan competitive binding assay (Kd); details: analyses herein; read-out: Binding constant (Kd) ALK6 (BMPR1B)
T2 construct: purchased Eurofins/DiscoveryX (KINOMEscan service)
Excerpt: as §1, §2, §3, §4

ALK3 (BMPR1A) = biological target: T3, ALK3 (BMPR1A) (Homo sapiens, UniProt P36894); test: KINOMEscan competitive binding assay (Kd); details: analyses herein; read-out: Binding constant (Kd) ALK3 (BMPR1A)
T3 construct: purchased Eurofins/DiscoveryX (KINOMEscan service)
Excerpt: as §1, §2, §3, §4

ALK2 (ACVR1) = biological target: T4, ALK2 (ACVR1) (Homo sapiens, UniProt Q04771); test: KINOMEscan competitive binding assay (Kd); details: analyses herein; read-out: Binding constant (Kd) ALK2 (ACVR1)
T4 construct: purchased Eurofins/DiscoveryX (KINOMEscan service)
Excerpt: as §1, §2, §3, §4

ALK1 (ACVRL1) = biological target: T5, ALK1 (ACVRL1) (Homo sapiens, UniProt P37023); test: KINOMEscan competitive binding assay (Kd); details: analyses herein; read-out: Binding constant (Kd) ALK1 (ACVRL1)
T5 construct: purchased Eurofins/DiscoveryX (KINOMEscan service)
Excerpt: as §1, §2, §3, §4

ACVR2B = biological target: T6, ACVR2B (Homo sapiens, UniProt Q13705); test: KINOMEscan competitive binding assay (Kd); details: analyses herein; read-out: Binding constant (Kd) ACVR2B
T6 construct: purchased Eurofins/DiscoveryX (KINOMEscan service)
Excerpt: as §1, §2, §3, §4

panel of enzymes = test: In vitro safety pharmacology, enzymatic inhibition (SafetyScreen 44); format: biochemical; details: 10 μM HYL001
Procedure: To identify potential adverse off-target drug interactions and derisk the development of HYL001 as a drug,[22] we performed binding and enzymatic inhibition assays with a panel of key proteins (mainly cell receptors, neurotransmitter transporters, and ion channels). […]
analysis by LC-MS/MS, using MRM mode. […]
related to phase I and phase II metabolism, respectively.
The PARs were used for calculation of metabolic stability. The 0 min area ratio was considered as 100%. The […]
incubation volume / number of cells (in millions) x K e. To calculate into full body context, the values of 120 […]
In vitro safety pharmacology […]
compared with historical values determined at Eurofins. Binding was defined as the % inhibition of the signal […]
enzyme activity. […] Results showing
The tail current amplitude, induced by a one […]
and expressed as % inhibition.
The Ames test was performed at Xenomatrix (Allschwil, Switzerland). Bacteria from the S. typhimurium

[4] = Plasma pharmacokinetics after single oral administration in rats; format: in vivo, Sprague Dawley rats; details: 71 mg/kg, rats (♂ SD)
Procedure: We assessed the in vivo pharmacokinetic properties of HYL001 after a single oral administration (dose of 71 mg/kg) in BALB/c mice as well as in Sprague–Dawley (SD) Rats. Liquid chromatography–tandem mass spectrometry (LC/MS/MS) was used for the determination of HYL001 in plasma (Figure S2 and Table 2).
6. Methods for in vivo characterizations of HYL001
Similarly, three rats were used in this study. Animals were administered orally with a suspension formulation of […]

[5] = male, Sprague-Dawley, rat, plasma

hERG potassium channel, sequence (Q12809 whole entry): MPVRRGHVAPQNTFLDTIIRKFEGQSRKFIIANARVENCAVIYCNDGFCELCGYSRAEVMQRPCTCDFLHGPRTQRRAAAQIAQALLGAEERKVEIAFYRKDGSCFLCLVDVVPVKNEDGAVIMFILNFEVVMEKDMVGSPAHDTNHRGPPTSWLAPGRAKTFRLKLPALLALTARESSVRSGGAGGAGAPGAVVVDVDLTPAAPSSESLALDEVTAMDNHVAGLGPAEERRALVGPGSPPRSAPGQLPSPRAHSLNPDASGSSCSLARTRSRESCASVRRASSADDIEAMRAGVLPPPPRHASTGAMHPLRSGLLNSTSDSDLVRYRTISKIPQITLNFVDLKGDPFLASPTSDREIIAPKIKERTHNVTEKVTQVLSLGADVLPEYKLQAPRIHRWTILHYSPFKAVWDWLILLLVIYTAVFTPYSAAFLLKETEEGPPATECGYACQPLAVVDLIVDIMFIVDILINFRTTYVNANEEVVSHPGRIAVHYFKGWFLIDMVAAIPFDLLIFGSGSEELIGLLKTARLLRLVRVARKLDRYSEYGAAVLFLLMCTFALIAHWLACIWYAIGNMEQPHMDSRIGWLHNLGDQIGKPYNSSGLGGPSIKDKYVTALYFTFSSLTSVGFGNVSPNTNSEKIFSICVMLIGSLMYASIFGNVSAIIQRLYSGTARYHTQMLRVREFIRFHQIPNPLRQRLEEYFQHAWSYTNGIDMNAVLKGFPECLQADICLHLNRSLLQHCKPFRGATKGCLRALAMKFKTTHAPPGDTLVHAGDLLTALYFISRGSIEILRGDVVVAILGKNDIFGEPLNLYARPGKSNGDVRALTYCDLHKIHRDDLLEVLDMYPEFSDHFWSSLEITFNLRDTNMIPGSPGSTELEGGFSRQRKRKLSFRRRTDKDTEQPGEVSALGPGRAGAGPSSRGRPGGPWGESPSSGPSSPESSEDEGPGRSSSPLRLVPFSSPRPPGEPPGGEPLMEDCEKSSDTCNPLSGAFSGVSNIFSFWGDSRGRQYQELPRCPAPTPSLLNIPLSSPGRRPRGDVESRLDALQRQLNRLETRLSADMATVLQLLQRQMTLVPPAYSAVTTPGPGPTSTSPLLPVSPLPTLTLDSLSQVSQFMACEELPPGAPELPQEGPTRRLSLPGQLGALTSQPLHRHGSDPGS
T5 sequence (P37023 22-503): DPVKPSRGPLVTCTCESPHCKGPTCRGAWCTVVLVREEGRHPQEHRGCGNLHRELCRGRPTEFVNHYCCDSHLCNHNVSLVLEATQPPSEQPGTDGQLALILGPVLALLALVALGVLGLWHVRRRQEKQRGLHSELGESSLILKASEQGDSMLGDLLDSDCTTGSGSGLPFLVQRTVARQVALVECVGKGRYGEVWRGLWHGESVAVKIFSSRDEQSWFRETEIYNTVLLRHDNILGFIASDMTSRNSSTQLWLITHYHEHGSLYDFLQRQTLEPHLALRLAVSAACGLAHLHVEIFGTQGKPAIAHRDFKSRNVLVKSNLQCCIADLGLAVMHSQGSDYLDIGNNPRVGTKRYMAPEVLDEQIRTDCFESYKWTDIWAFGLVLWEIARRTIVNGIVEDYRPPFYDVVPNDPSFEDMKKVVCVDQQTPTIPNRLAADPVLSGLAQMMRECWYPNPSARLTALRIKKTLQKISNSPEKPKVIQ
T6 sequence (Q13705 19-512): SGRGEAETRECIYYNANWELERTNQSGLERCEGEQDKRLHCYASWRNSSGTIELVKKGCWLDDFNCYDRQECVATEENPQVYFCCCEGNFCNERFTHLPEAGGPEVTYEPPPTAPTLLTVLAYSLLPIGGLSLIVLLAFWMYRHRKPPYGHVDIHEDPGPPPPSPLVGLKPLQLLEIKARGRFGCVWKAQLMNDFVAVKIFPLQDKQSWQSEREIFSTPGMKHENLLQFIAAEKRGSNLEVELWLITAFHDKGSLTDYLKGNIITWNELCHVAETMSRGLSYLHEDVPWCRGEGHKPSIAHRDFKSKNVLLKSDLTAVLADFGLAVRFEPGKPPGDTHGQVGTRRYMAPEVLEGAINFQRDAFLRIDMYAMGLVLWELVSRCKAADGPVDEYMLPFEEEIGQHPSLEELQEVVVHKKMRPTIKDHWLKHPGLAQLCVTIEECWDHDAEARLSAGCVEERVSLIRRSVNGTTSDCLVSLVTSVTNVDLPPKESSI
T1 sequence (P37173 23-567): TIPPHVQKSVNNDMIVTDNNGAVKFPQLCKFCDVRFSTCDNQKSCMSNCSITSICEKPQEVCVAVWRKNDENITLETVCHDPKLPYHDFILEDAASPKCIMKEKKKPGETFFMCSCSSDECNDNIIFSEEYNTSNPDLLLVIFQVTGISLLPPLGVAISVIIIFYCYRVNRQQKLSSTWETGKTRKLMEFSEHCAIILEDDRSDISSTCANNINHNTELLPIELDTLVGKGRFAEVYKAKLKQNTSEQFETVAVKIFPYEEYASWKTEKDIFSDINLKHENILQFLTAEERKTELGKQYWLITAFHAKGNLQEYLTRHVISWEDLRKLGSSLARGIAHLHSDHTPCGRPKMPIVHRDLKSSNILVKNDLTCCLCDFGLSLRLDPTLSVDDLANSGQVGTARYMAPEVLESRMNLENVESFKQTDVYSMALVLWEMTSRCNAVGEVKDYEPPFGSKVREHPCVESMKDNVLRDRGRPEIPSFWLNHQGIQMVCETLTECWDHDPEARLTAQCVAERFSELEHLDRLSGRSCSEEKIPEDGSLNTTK
T4 sequence (Q04771 21-509): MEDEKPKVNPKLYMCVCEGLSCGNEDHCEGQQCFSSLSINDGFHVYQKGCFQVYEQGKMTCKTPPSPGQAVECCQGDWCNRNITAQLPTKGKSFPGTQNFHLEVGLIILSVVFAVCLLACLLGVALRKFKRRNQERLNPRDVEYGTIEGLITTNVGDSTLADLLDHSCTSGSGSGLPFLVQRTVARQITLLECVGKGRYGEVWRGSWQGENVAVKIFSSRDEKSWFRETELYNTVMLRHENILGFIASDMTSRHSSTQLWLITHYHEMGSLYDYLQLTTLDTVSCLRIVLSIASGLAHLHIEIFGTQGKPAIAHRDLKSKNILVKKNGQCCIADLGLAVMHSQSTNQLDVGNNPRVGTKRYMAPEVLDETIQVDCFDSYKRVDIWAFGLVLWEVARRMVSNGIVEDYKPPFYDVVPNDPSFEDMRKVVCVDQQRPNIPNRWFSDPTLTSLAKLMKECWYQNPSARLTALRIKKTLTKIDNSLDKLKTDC
T3 sequence (P36894 24-532): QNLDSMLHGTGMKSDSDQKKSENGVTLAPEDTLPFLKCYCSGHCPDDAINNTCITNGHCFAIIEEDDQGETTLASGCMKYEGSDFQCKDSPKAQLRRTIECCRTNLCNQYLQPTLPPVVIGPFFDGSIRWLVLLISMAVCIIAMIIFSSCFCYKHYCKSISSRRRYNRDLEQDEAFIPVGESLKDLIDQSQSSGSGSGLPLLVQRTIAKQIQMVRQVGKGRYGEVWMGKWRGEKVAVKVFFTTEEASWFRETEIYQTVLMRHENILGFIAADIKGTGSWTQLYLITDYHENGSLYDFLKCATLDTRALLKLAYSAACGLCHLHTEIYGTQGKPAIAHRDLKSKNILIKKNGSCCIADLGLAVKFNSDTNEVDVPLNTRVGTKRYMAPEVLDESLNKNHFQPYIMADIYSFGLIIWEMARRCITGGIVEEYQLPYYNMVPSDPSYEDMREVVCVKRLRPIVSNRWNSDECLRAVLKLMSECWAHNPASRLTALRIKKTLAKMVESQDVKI
T2 sequence (O00238 14-502): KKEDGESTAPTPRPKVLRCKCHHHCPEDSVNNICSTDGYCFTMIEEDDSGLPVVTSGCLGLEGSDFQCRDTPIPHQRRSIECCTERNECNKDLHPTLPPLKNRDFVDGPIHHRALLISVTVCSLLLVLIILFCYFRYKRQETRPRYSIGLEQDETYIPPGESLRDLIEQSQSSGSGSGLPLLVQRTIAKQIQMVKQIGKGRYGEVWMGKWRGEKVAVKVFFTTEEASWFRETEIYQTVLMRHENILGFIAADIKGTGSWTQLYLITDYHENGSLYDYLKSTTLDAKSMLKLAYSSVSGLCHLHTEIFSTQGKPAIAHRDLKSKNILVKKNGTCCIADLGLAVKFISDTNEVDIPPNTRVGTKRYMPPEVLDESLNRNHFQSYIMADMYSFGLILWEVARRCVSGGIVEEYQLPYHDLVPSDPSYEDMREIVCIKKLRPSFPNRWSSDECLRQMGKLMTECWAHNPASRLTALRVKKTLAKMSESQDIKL

## Cc1cccc(-c2nn3c(c2-c2ccnc4ccc(C(N)=O)cc24)CCC3)n1 [galunisertib]
[1]
  Efficacious murine dose: 720–800 mg/kg twice daily (BID)
[2]
  CL/F: 402 mL/min/kg

## Cc1cccc(-c2nn3c(c2-c2ccnc4ccc(O)cc24)CCC3)n1 [HYL001, 4-(2-(6-Methylpyridin-2-yl)-5,6-dihydro-4H-pyrrolo[1,2-b]pyrazol-3-yl)quinolin-6-ol]
hERG potassium channel
  inhibition at 3.7 µM: 1.8%
  inhibition at 11.1 µM: 8.4%
  inhibition at 33.3 µM: 22.8%
[3]; human plasma, 5 µM, n=3
  % Bound Mean ± SD: ~91%
[3]; human plasma, 37 °C
  % Compound remaining at 4 hrs: 101.1%
[3]; human, plasma (rapid equilibrium dialysis device), pH 7.4
  recovery at 4 h, 5 µM: 101%
[3]; human, pH 7.4, % Bound Mean ± SD, human plasma, 5 µM, n=3
  fraction unbound at 4 h, 5 µM: 0.084
[3]; human, pH 7.4, % Free fraction, human plasma
  fraction unbound at 4 h, 5 µM: 0.084
TGFBR2
  Kd: 2 µM
ALK6 (BMPR1B)
  Kd: 0.16 µM
ALK3 (BMPR1A)
  Kd: 6.9 µM
ALK2 (ACVR1)
  Kd: 7.5 µM
ALK1 (ACVRL1)
  Kd: 11 µM
ACVR2B
  Kd: 0.1 µM
Panel of enzymes
  Inhibition of any of the tested enzymatic activities: ≤ 50%
[4]; male, Sprague-Dawley, rat, plasma, po
  half-life: ~5 h
[4]; [5]
  AUC(0-inf): 22000 ng·h/mL
  AUC(0-t): 21600 ng·h/mL
  CL/F: 53.8 mL/min/kg
  Cmax: 8540 ng/mL
  Tmax: 0.67 h
[4]; male, Sprague-Dawley, rat, plasma, read-out: Vss/F
  Vd/F: 10.8 L/kg
[4]
  T1/2: 4.8 h
